# Source: the SangsterLogP compilation
row,Structure (SMILES),logP
1,CCC(=O)OC1(c2ccccc2)CCN(C)CC1C (stereo not drawn),2.43
2,O=[N+]([O-])c1ccc(O[C@@H]2O[C@H](CO)[C@H](O)[C@H](O)[C@H]2O)cc1,-0.63
3,OC(c1ccccc1)C(O)c1ccccc1 (stereo not drawn),1.91
4,NC1C2CCC1c1ccc(C(F)(F)F)cc1C2 (stereo not drawn),3.54
5,CCC(=O)O[C@]1(c2ccccc2)C[C@H](C)N(C)C[C@H]1C,3.13
6,C[C@H](N)[C@H](O)c1ccccc1 (relative stereo),0.67
7,CC(=O)OC1(c2ccccc2)CCN(C)C(C)C1C (stereo not drawn),2.51
8,C=C[C@H]1CN2CC[C@H]1C[C@@H]2[C@@H](O)c1ccnc2ccccc12,2.68
9,NC1C2CCC1c1ccccc12 (stereo not drawn),2.01
10,NC1C2CCC1c1cccc(C(F)(F)F)c1C2 (stereo not drawn),3.41
11,COc1ccccc1/C=C/C(=O)O,2.54
12,CCC(=O)OC1(c2ccccc2)CCN(C)C(C)C1C (stereo not drawn),2.97
13,Cc1cc(=O)oc2ccc(O[C@@H]3O[C@H](CO)[C@@H](O)[C@H](O)[C@H]3O)cc12,-0.66
14,NC1CCc2ccccc2C1O (stereo not drawn),0.81
15,NC1C2CCC1c1cc(C(F)(F)F)ccc1C2 (stereo not drawn),3.45
16,C=CCC1CN(C)CCC1(OC(=O)CC)c1ccccc1 (stereo not drawn),2.97
17,NC1C2CCC1c1ccccc1C2 (stereo not drawn),2.04
18,COc1cccc([C@]2(O)CCCC[C@H]2CN(C)C)c1 (relative stereo),2.51
